In PubChem BioAssay AID1845197 (Molecular Pharmacology Branch, DTP, NCI, 2023):
pIC50: −log10 of the molar value.

Test system: 349418-098-R tumor spheroid viability
Test: Anticancer human tumor 349418-098-R patient-derived lung adenocarcinoma cell line growth inhibition
Details: spheroids with HUVEC and MSC; for pIC50: curve of first compound; for viability, T/C: stronger effect = lower value
Method in brief: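 Complex tumor spheroids combined malignant cells with endothelial cells and mesenchymal stem cells. DNA-damaging drugs and DNA repair inhibitors were tested alone and in combination, at half-log dilutions down from clinical Cmax (top 10 microM if Cmax unknown), 0.25% DMSO final.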
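Also: spheroids exposed to compound for 7 days before measurement.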
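For viability, T/C in this document: percent of vehicle control viability with 100% = DMSO-treated spheroids.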

Compound: COc1cc(C)[nH]c(=O)c1CN1CCc2c(Cl)cc(C(OC)C3COC3)c(Cl)c2C1=O (stereo not given) + Cn1nnc2c(C(N)=O)ncn2c1=O
- pIC50 (second compound 1 µM): < 5.00
- pIC50 (second compound 3.16 µM): < 5.00
- pIC50 (second compound 10 µM): < 5.00
- pIC50 (second compound 31.6 µM): < 5.00
- pIC50 (second compound 100 µM): < 5.00
- viability, T/C (second compound 1 µM, first compound 0.0316 µM): 102%
- viability, T/C (second compound 1 µM, first compound 0.1 µM): 99.6%
- viability, T/C (second compound 1 µM, first compound 0.316 µM): 92.1%
- viability, T/C (second compound 1 µM, first compound 1 µM): 90.6%
- viability, T/C (second compound 1 µM, first compound 3.16 µM): 83.7%
- viability, T/C (second compound 1 µM, first compound 10 µM): 79.4%
- viability, T/C (second compound 3.16 µM, first compound 0.0316 µM): 103%
- viability, T/C (second compound 3.16 µM, first compound 0.1 µM): 98.5%
- viability, T/C (second compound 3.16 µM, first compound 0.316 µM): 95.7%
- viability, T/C (second compound 3.16 µM, first compound 1 µM): 84.2%
- viability, T/C (second compound 3.16 µM, first compound 3.16 µM): 84%
- viability, T/C (second compound 3.16 µM, first compound 10 µM): 83.6%
- viability, T/C (second compound 10 µM, first compound 0.0316 µM): 98.7%
- viability, T/C (second compound 10 µM, first compound 0.1 µM): 96.7%
- viability, T/C (second compound 10 µM, first compound 0.316 µM): 92.3%
- viability, T/C (second compound 10 µM, first compound 1 µM): 95.1%
- viability, T/C (second compound 10 µM, first compound 3.16 µM): 85%
- viability, T/C (second compound 10 µM, first compound 10 µM): 81.9%
- viability, T/C (second compound 31.6 µM, first compound 0.0316 µM): 104%
- viability, T/C (second compound 31.6 µM, first compound 0.1 µM): 98.5%
- viability, T/C (second compound 31.6 µM, first compound 0.316 µM): 93.4%
- viability, T/C (second compound 31.6 µM, first compound 1 µM): 93.3%
- viability, T/C (second compound 31.6 µM, first compound 3.16 µM): 84.8%
- viability, T/C (second compound 31.6 µM, first compound 10 µM): 78.4%
- viability, T/C (second compound 100 µM, first compound 0.0316 µM): 99%
- viability, T/C (second compound 100 µM, first compound 0.1 µM): 98.7%
- viability, T/C (second compound 100 µM, first compound 0.316 µM): 96.3%
- viability, T/C (second compound 100 µM, first compound 1 µM): 87.4%
- viability, T/C (second compound 100 µM, first compound 3.16 µM): 87%
- viability, T/C (second compound 100 µM, first compound 10 µM): 81.8%

Compound: [2H]c1nc(C)nc([2H])c1-c1cc(NC[C@@H](C)c2cccc3c(C(=O)NC)ccnc23)ncn1 + CC[C@@]1(O)C(=O)OCc2c1cc1n(c2=O)Cc2cc3c(CN(C)C)c(O)ccc3nc2-1
- pIC50 (second compound 0.003 µM): < 5.00
- pIC50 (second compound 0.00949 µM): < 5.00
- pIC50 (second compound 0.03 µM): 5.12
- pIC50 (second compound 0.0949 µM): > 7.50
- pIC50 (second compound 0.3 µM): > 7.50
- viability, T/C (second compound 0.003 µM, first compound 0.0316 µM): 96.3%
- viability, T/C (second compound 0.003 µM, first compound 0.1 µM): 103%
- viability, T/C (second compound 0.003 µM, first compound 0.316 µM): 97.9%
- viability, T/C (second compound 0.003 µM, first compound 1 µM): 105%
- viability, T/C (second compound 0.003 µM, first compound 3.16 µM): 102%
- viability, T/C (second compound 0.003 µM, first compound 10 µM): 102%
- viability, T/C (second compound 0.00949 µM, first compound 0.0316 µM): 93.7%
- viability, T/C (second compound 0.00949 µM, first compound 0.1 µM): 101%
- viability, T/C (second compound 0.00949 µM, first compound 0.316 µM): 98.5%
- viability, T/C (second compound 0.00949 µM, first compound 1 µM): 100%
- viability, T/C (second compound 0.00949 µM, first compound 3.16 µM): 102%
- viability, T/C (second compound 0.00949 µM, first compound 10 µM): 97.2%
- viability, T/C (second compound 0.03 µM, first compound 0.0316 µM): 78.9%
- viability, T/C (second compound 0.03 µM, first compound 0.1 µM): 67.9%
- viability, T/C (second compound 0.03 µM, first compound 0.316 µM): 75.5%
- viability, T/C (second compound 0.03 µM, first compound 1 µM): 71.1%
- viability, T/C (second compound 0.03 µM, first compound 3.16 µM): 53.9%
- viability, T/C (second compound 0.03 µM, first compound 10 µM): 48.7%
- viability, T/C (second compound 0.0949 µM, first compound 0.0316 µM): 13.9%
- viability, T/C (second compound 0.0949 µM, first compound 0.1 µM): 15.4%
- viability, T/C (second compound 0.0949 µM, first compound 0.316 µM): 11.2%
- viability, T/C (second compound 0.0949 µM, first compound 1 µM): 13.1%
- viability, T/C (second compound 0.0949 µM, first compound 3.16 µM): 7.36%
- viability, T/C (second compound 0.0949 µM, first compound 10 µM): 6.4%
- viability, T/C (second compound 0.3 µM, first compound 0.0316 µM): 4.73%
- viability, T/C (second compound 0.3 µM, first compound 0.1 µM): 5.56%
- viability, T/C (second compound 0.3 µM, first compound 0.316 µM): 4.91%
- viability, T/C (second compound 0.3 µM, first compound 1 µM): 4.06%
- viability, T/C (second compound 0.3 µM, first compound 3.16 µM): 4.8%
- viability, T/C (second compound 0.3 µM, first compound 10 µM): 3.56%
